According to PMC10042146, “SARS-CoV-2 M^pro Protease Variants of Concern Display Altered Viral Substrate and Cell Host Target Galectin-8 Processing but Retain Sensitivity toward Antivirals” (ACS Central Science, 2023):

Biological target: T1, SARS-CoV-2 M^pro (wild type) (Severe acute respiratory syndrome coronavirus 2, UniProt P0DTD1)
T1 construct: gene rep; mature nsp5 cut from replicase polyprotein 1ab (also pp1a); homodimer; purification details only in supplement
Type: biochemical

With AVI-8053 as the substance, how does the IC50 read?
Its IC50 is 19 nM.
